Results on 1 compound are retold here after patent US8013163B2 (Astex Therapeutics Limited, priority 2005, dated 2011).

Data set [1] in a line: Stability of acetate buffered salt solution (autoclaving, heating, freeze-thaw). Type of data set: physicochemical. As to the method:
Autoclaving at 121° C. for 15 minutes, followed by heating the solution further at 40° C., 55° C. or 75° C. for 10-12 days, were carried out on the acetate buffered salt solution.

The nature of data set [2]: Solubility of the mesylate salt in aqueous solution at pH 1 to 11 (UV-Vis assay). Type of data set: physicochemical. As to the method: Solutions were prepared by titrating standard hydrochloric acid with dilute sodium hydroxide solution to a desired pH. […] These solutions were then used to assess the solubility of 4-(2,6-dichlorobenzoylamino)-1/i-pyrazole-3-carboxylic acid piperidin-4-ylamide methanesulphonate.
In each experiment, 150 mg of the methanesulphonate salt was weighed into a 5 ml clear vial and 3-4 ml of a solution of a given pH was added. […] In each case, the solution was then filtered through a 0.22 μm PVDF filter, the pH of the clear solution obtained was recorded, and the solution was assayed for methanesulphonate salt content using a UV-Vis spectrophotometer and standard solutions of the salt.

Where a name gives a salt, the structure may show the parent alone.

Regarding `O=C(NC1CCNCC1)c1n[nH]cc1NC(=O)c1c(Cl)cccc1Cl` [mesylate salt, 4-(2,6-dichlorobenzoylamino)-1H-pyrazole-3-carboxylic acid piperidin-4-ylamide methanesulphonate], the “precipitation in freeze-thaw stability tests” value in data set [1] (acetate buffered salt solution) was “did not result in precipitation”. Moreover, in data set [1] (acetate buffered salt solution), the “stability of solution pH and salt in freeze-thaw tests” value was “stable”. In data set [1] (acetate buffered solution, autoclaving at 121° C. for 15 minutes, then 40° C., 55° C. or 75° C. for 10-12 days), the “stability of solution pH and salt” value was “stable”. Further, the solubility at 3 h is 9.85 mg/mL in data set [2] (aqueous solution, 4 °C, pH 0.26, simulated gastric fluid, thermodynamic from solid, initial pH 0.26, final pH 0.26); 39.4 mg/mL in data set [2] (aqueous solution, 4 °C, pH 1, simulated gastric fluid, thermodynamic from solid, initial pH 1.00, final pH 1.00); 41.5 mg/mL in data set [2] (aqueous solution, 4 °C, pH 2.51, aqueous buffer, thermodynamic from solid, initial pH 2.51, final pH 2.51); 42.4 mg/mL in data set [2] (aqueous solution, 4 °C, pH 4.99, aqueous buffer, thermodynamic from solid, initial pH 4.99, final pH 4.99); 45.9 mg/mL in data set [2] (aqueous solution, 4 °C, pH 7.34, aqueous buffer, thermodynamic from solid, initial pH 7.34, final pH 7.34); 30.4 mg/mL in data set [2] (aqueous solution, 4 °C, pH 7.4, aqueous buffer, thermodynamic from solid, initial pH 9.04, final pH 7.40). The solubility at 3 h in data set [2] (aqueous solution, 4 °C, pH 7.69, aqueous buffer, thermodynamic from solid, initial pH 7.69, final pH 7.69) was 37.9 mg/mL; in data set [2] (aqueous solution, 4 °C, pH 7.9, aqueous buffer, thermodynamic from solid, initial pH 10.97, final pH 7.90), 30.9 mg/mL; in data set [2] (aqueous solution, 4 °C, pH 8.17, aqueous buffer, thermodynamic from solid, initial pH 8.17, final pH 8.17), 43.2 mg/mL; in data set [2] (aqueous solution, pH 0.37, simulated gastric fluid, thermodynamic from solid, ambient temperature, initial pH 0.26, final pH 0.37), 15.7 mg/mL; in data set [2] (aqueous solution, pH 1.06, simulated gastric fluid, thermodynamic from solid, ambient temperature, initial pH 1.00, final pH 1.06) it was 40.3 mg/mL; in data set [2] (aqueous solution, pH 3, aqueous buffer, thermodynamic from solid, ambient temperature, initial pH 2.51, final pH 3.00), 44.9 mg/mL. The solubility at 3 h in data set [2] (aqueous solution, pH 6.73, aqueous buffer, thermodynamic from solid, ambient temperature, initial pH 4.99, final pH 6.73) came out at 44.3 mg/mL; in data set [2] (aqueous solution, pH 7.3, aqueous buffer, thermodynamic from solid, ambient temperature, initial pH 7.34, final pH 7.30), 44.5 mg/mL; in data set [2] (aqueous solution, pH 7.4, aqueous buffer, thermodynamic from solid, ambient temperature, initial pH 8.17, final pH 7.40), 44.5 mg/mL; in data set [2] (aqueous solution, pH 7.4, aqueous buffer, thermodynamic from solid, ambient temperature, initial pH 9.04, final pH 7.4) it was 35.4 mg/mL; in data set [2] (aqueous solution, pH 7.6, aqueous buffer, thermodynamic from solid, ambient temperature, initial pH 10.97, final pH 7.6), 34.6 mg/mL; in data set [2] (aqueous solution, pH 7.9, aqueous buffer, thermodynamic from solid, ambient temperature, initial pH 7.69, final pH 7.90), 42.1 mg/mL. Moreover, the solubility at 6 days in data set [2] (aqueous solution, pH 0.504, simulated gastric fluid, thermodynamic from solid, Solution 1 after 6 days in the laboratory, precipitate filtered, pH 0.504 / 0.50) is 13.9 mg/mL. Besides, in data set [2] (pH>7 and pH<3, ambient temperature), the “behaviour of solution on standing” value is recorded as “precipitation of the salt was observed on standing”.
